These results are taken from PMC11726654, “Discovery of MDI-114215: A Potent and Selective LIMK Inhibitor To Treat Fragile X Syndrome” (Journal of Medicinal Chemistry, 2024).

Data set [1] in a line: Unbound fraction in brain and plasma. The class given is in vitro ADME. Conditions: for fubrain: unbound fraction in brain; for fuplasma: unbound fraction in plasma.
A short description of data set [2]: Microsomal stability. Conditions: human, microsomes, pH 7.4.
Data set [3] can be described thus: Microsomal stability. The following applies: rat, microsomes, pH 7.4.
Another data set can be described thus: CNS penetration study. Conditions: male, Sprague-Dawley, rat, brain/plasma, iv, 1 mg/kg.
A further data set is described as follows: In vivo PK, i.v. dosing. Conditions: male, Sprague-Dawley, rat, plasma; for CLint scaled: intravenous; for AUC(0-inf) at 1 h / Vd at 1 h / half-life at 1 h: iv.
The nature of another data set: Thermodynamic solubility. Conditions: PBS, pH 7.
Data set [4] can be described thus: In vivo PK, p.o./i.p. dosing. The following applies: male, Sprague-Dawley, rat, plasma.
The test system of data set [5] is p-cofilin Ser3 levels in SH-SY5Y cells. In words: AlphaLISA SureFire p-cofilin assay. The class given is cell-based. Conditions: Homo sapiens, 2 h, read-out: alphaLISA pIC50 p-cofilin (converted). On the technique in general: Bead proximity is the source of the signal in Alpha formats.
Method: The AlphaLISA assay for detection of p-cofilin Ser3 levels was followed as previously described.[14] […] Cells were placed in the incubator for 2 h, after which the media was removed and the cells were lysed using 50 μL AlphaLISA 1× lysis buffer (PerkinElmer, USA) containing protease inhibitor cocktail (Sigma/Merck, Dorset, UK) and Pierce phosphatase inhibitor cocktail (Thermo Fisher Scientific, UK). The cell lysate was then transferred to a clean, flat-bottom, white 384-well plate, to which 5 μL/well of acceptor bead solution consisting of Reaction buffer 1, Reaction buffer 2, Activation Buffer and Acceptor Beads from pCofilin SureFire Ultra assay kit (PerkinElmer, USA, cat# ALSU-PCOF-A500) was added under dim light. After incubation at RT for 1 h, 5 μL/well of donor solution consisting of Dilution Buffer and Donor beads was added. The plate was read on a Pherastar reader (BMD Labtech Ltd., Aylesbury, UK) using an AlphaLISA cartridge and AlphaLISA plate settings.
A short description of data set [6]: Caco-2 permeability and efflux. The following applies: human, Caco-2.
Data set [7] concerns p-cofilin levels in WT and Fmr1 KO mouse brain slices. In words: Western blot of p-cofilin in treated hippocampal brain slices. Conditions: 3 μM, 30 min, WT and Fmr1 KO (P7–9) brain slices.
Method: Hippocampal slices were obtained from neonatal (postnatal days 7–9) wild type (WT) and Fmr1 KO mice originally supplied by Jackson Laboratories. […] Mice for experimentation were killed by cervical dislocation. […] The temporal aspects of the brain were trimmed, bisected, then glued to a metal plate, such that the midline was uppermost and horizontal. […] Each individual sample was suspended in 300 μL of buffer and lysed by pipetting on ice. Samples were centrifuged to pellet at 17,000g for 30 min at 4 °C. Protein was quantified using Biorad DC protein assay (Biorad, 5000112) and read on a PheraStar plate reader (BMG Labtech) and standardized to 2 mg/mL each sample.
Sample loading buffer was added to each sample at 1:4 concentrations and boiled for 5 min prior to use. […] Membranes were then blocked in 5% BSA TBST for 1 h at rt and then placed into LIMK1, p-cofilin, cofilin and actin primary antibody solutions at 4 °C overnight. The following day, membranes were washed 3× in TBST solution before being placed in appropriate secondary antibody solutions for 1 h at room temperature. Following a final 3 washes in TBST, the membranes were developed using ClarityMax ECL substrate (Biorad, UK) at a 1:1 ratio. The ECL solution was allowed to develop on the membrane for 5 min prior to visualizing using the CHEMIDOC imaging system (Biorad, UK). […]

One may read the microsomal CLint as a measure of how fast metabolising enzymes remove a compound, apart from limits set by blood flow. Usually Kp stands for the ratio of the level in a tissue or fluid to that in plasma or blood. As usually defined, the CLint scaled is the rate of metabolic loss divided by the concentration. A high value points to faster metabolism. As a reminder, the AUC(0-inf) is total exposure, with the tail of the curve extrapolated. Lower therefore signals less exposure. A word on the Vd: it is a proportionality between amount in the body and measured concentration, not a real space. Low values mean little distribution into tissue, high ones wide distribution into tissue. What is called half-life is how long it takes for the measured level to halve. Higher therefore signals slow decline. For orientation: solubility means how much of the substance goes into solution per volume. Low readings indicate a poorly soluble substance, high ones a readily soluble substance. What is called Cmax is the maximum level reached in the sampled fluid or tissue. One may read the Tmax as the time from dosing to the highest level. What is called bioavailability is dose-corrected exposure relative to a reference, in per cent. Low values mean poor availability, high ones good availability. For orientation: Papp means the rate of passage across a membrane or cell layer, normalised by area and donor concentration. Low values mean poor permeation, high ones ready permeation.

≈ marks a conversion by molar mass, not a printed value.

Method for In vivo PK, i.v. dosing: A satellite group of three animals were also administered i.v. test compound (dosed at 1 mg/kg in 10% DMSO/20% Cremophor/70% saline) and after 1 h, the animals culled and brain samples immediately prepared by homogenization in H2O and protein precipitation in MeCN. Bioanalysis on plasma and brain samples were performed using a UHPLC-tandem mass spectrometry using electrospray ionization.

For `CCCCN(Cc1ccc2[nH]ccc2c1)C(=O)c1ccc(S(=O)(=O)Nc2ccccc2)cc1` [Compound 51, N-Butyl-N-(1H-indol-5-ylmethyl)-4-(phenylsulfamoyl)benzamide], in [1], the fubrain is below 0.1% and the fuplasma is 1.3%. The microsomal CLint at 2 μM in the data set “Microsomal stability [2]” was determined as 121 µL/min/mg. Besides, the microsomal CLint at 2 μM in the data set “Microsomal stability [3]” came to 357 µL/min/mg. Besides, in the data set “CNS penetration study”, the Kp at 1 h turned out to be 0.4 and the Kp uu at 1 h was below 0.03. Also, in “In vivo PK, i.v. dosing”, the CLint scaled was determined as 67.8 mL/min/kg. In the data set “In vivo PK, i.v. dosing” (1 mg/kg), the AUC(0-inf) at 1 h worked out at 247 ng·h/mL, the Vd at 1 h turned out to be 2.3 L/kg and the half-life at 1 h was 30 min. The compound also had a solubility at 24 h in “Thermodynamic solubility” of 3 µM (≈ 1.38 µg/mL). For the same compound, in [4] (po, 3 mg/kg), the Cmax at 1 h amounted to 4.6 ng/mL, the Tmax at 1 h stood at 60 min and the bioavailability at 1 h amounted to 2%.

Regarding `COCCNc1ccc(CN(CC2CC2)C(=O)c2ccc(S(=O)(=O)Nc3ccccc3)cc2)nc1` [Compound 75, N-(Cyclopropylmethyl)-N-[[5-(2-methoxyethylamino)-2-pyridyl]methyl]-4-(phenylsulfamoyl)benzamide], the IC50 in data set [5] is 77.6 nM. Further, in data set [1], the fubrain stood at 2.2% and the fuplasma stood at 4.7%. In addition, the microsomal CLint at 0.5 h, 2 µM in “Microsomal stability [2]” amounted to 175 µL/min/mg. For the same compound, in “Microsomal stability [3]”, the microsomal CLint at 0.5 h, 2 µM is 327 µL/min/mg. The CLint scaled in the data set “In vivo PK, i.v. dosing” is 374 mL/min/kg. Further, in “In vivo PK, i.v. dosing” (0.5 mg/kg), the AUC(0-inf) at 1 h was 22.6 ng·h/mL, the Vd at 1 h is 10.9 L/kg and the half-life at 1 h was 24 min. Further, in “Thermodynamic solubility”, the concentration in solution (solubility at 24 h) came to 28 µM (≈ 13.8 µg/mL). In data set [4] (ip, 10 mg/kg), the Cmax at 1 h amounted to 134 ng/mL, the Tmax at 1 h worked out at 18 min and the bioavailability was 55%. In [4] (po, 3 mg/kg), the Cmax at 1 h was 16.8 ng/mL, the Tmax at 1 h came to 24 min and the bioavailability at 1 h worked out at 13%. The compound also returned a Papp in [6] of 8.3 ×10⁻⁶ cm/s.

As to `O=C(c1ccc(S(=O)(=O)Nc2ccccc2)cc1)N(Cc1ccc(OCCO)cc1)CC1CC1` [Compound 86, N-(Cyclopropylmethyl)-N-[[4-(2-hydroxyethoxy)phenyl]methyl]-4-(phenylsulfamoyl)benzamide], the IC50 in [5] was 56.2 nM. In [1], this compound showed a fubrain of 0.9% and a fuplasma of 1.4%. Besides, the microsomal CLint at 0.5 h, 2 µM in the data set “Microsomal stability [2]” was 119 µL/min/mg. For the same compound, the microsomal CLint at 0.5 h, 2 µM in the data set “Microsomal stability [3]” worked out at 420 µL/min/mg. The same compound registered a solubility at 24 h in “Thermodynamic solubility” of 6 µM (≈ 2.88 µg/mL). The Papp in data set [6] was found to be 15 ×10⁻⁶ cm/s.

For `CCn1c(=O)c(-c2ccc(Cl)cc2Cl)cc2cnc(Nc3ccc(N4CCNCC4)c(F)c3)nc21` [FRAX486], the “p-cofilin levels vs vehicle” value in data set [7] is on record as “consistent reduction”.
